Assay results as given in ChEMBL document CHEMBL1148295, “Evaluation and comparison of 3D-QSAR CoMSIA models for CDK1, CDK5, and GSK-3 inhibition by paullones” (J Med Chem, 2004).
pIC50: −log10 of the molar value.

Columns and labels:
[1] = biological target: Cyclin-dependent kinase 1/cyclin B (Homo sapiens, UniProt O95067+P06493+P14635+Q8WWL7); type: cell-based, Marthasterias glacialis, Oocyte
Description: Inhibitory activity against cyclin dependent kinase 1-cyclinB extracted from M phase starfish (Marthasterias glacialis) oocytes

[2] = biological target: Cyclin-dependent kinase 5/CDK5 activator 1 (Homo sapiens, UniProt Q00535); type: protein-complex assay
Cyclin-dependent kinase 5/CDK5 activator 1, sequence (Q00535 whole entry): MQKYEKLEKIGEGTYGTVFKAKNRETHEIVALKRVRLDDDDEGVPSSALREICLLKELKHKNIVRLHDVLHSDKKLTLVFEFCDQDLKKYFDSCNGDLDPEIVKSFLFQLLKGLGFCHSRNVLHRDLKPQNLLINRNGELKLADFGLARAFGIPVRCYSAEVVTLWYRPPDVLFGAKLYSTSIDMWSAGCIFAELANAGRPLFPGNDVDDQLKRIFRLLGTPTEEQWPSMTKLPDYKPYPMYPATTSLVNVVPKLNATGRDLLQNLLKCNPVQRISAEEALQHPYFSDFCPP
Cyclin-dependent kinase 5/CDK5 activator 1, sequence (Q15078 whole entry, further chain): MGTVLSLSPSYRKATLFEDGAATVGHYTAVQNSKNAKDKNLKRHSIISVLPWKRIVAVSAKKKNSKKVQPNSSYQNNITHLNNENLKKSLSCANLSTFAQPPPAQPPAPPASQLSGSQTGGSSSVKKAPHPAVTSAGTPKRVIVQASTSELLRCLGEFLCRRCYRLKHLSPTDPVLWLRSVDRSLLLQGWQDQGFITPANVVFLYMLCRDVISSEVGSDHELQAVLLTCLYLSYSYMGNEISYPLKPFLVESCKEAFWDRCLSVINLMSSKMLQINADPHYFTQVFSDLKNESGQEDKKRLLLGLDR
Description: Inhibitory activity against cyclin-dependent kinase 5/p25

Cyclin-dependent kinase 1/cyclin B, sequence (P06493 whole entry): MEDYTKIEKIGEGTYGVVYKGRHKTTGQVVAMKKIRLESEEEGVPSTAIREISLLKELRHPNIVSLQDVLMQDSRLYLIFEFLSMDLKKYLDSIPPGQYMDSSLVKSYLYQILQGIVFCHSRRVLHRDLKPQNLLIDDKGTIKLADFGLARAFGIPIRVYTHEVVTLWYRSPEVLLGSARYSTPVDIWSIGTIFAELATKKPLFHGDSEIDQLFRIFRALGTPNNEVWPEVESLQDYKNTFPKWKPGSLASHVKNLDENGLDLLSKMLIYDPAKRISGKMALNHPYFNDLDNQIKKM
Cyclin-dependent kinase 1/cyclin B, sequence (P14635 whole entry): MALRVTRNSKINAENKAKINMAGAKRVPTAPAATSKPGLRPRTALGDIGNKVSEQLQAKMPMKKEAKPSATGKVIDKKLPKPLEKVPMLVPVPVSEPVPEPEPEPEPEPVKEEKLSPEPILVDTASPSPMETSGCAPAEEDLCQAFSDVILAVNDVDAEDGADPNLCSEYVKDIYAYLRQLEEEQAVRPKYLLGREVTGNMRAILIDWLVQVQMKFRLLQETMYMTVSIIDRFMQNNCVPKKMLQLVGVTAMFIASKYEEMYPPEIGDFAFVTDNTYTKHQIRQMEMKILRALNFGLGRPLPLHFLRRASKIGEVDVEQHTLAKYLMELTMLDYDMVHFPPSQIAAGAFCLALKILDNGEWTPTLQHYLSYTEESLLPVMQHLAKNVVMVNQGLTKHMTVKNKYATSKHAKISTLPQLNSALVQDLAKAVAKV
Cyclin-dependent kinase 1/cyclin B, sequence (Q8WWL7 whole entry): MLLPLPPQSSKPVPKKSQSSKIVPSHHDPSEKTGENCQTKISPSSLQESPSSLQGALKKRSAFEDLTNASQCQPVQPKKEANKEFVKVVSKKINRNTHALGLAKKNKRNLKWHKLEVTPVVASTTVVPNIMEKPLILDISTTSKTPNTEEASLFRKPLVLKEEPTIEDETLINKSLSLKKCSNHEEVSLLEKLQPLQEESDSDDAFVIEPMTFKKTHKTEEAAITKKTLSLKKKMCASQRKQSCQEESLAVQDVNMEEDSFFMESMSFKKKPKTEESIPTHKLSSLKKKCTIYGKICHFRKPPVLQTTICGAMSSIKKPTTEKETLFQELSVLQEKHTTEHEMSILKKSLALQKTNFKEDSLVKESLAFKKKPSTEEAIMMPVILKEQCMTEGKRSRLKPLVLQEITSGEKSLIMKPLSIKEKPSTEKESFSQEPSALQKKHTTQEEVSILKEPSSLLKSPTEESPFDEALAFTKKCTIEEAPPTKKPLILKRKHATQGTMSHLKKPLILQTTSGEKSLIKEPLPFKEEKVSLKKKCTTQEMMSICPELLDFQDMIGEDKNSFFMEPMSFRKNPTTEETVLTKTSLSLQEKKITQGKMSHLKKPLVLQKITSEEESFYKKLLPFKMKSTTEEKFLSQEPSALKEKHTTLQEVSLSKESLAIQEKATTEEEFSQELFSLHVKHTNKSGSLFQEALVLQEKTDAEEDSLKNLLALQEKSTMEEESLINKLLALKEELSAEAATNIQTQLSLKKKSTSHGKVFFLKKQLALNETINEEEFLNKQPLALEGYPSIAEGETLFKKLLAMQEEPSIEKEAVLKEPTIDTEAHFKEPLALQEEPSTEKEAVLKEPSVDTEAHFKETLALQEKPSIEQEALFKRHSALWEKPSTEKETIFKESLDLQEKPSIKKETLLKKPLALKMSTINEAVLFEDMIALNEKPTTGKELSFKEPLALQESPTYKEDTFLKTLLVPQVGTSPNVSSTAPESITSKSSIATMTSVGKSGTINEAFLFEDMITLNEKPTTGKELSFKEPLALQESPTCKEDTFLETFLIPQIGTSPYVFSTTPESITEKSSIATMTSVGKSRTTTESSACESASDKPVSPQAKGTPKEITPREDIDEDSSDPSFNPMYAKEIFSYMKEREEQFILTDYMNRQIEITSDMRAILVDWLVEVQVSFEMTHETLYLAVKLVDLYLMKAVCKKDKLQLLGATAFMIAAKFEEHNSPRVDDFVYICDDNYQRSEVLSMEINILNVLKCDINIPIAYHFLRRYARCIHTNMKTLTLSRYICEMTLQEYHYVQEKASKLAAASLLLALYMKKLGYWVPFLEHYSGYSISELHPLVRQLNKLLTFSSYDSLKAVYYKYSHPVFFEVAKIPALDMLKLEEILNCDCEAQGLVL
Cyclin-dependent kinase 1/cyclin B, sequence (O95067 whole entry): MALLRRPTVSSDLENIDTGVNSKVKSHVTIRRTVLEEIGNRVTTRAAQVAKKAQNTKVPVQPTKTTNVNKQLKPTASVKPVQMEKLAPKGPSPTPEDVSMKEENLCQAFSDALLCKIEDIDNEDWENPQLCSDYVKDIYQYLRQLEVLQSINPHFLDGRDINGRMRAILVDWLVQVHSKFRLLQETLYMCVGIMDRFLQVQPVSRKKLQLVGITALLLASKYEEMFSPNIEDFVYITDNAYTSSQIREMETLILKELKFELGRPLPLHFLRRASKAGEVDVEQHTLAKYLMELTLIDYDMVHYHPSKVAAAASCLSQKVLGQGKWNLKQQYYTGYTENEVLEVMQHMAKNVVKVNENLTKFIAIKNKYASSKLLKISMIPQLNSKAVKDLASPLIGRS

SMILES | pIC50 [1] | pIC50 [2]
O=[N+]([O-])c1ccc2[nH]c3c(c2c1)CC(=S)Nc1ccccc1-3 | 5.89 | 5.77
CSC1=Nc2ccccc2-c2c(c3cc([N+](=O)[O-])ccc3n2C)C1 | 3.64 | 3.07
O=C1Cc2c([nH]c3ccc(Br)cc23)-c2sccc2N1 | – | 5.40
O=C1Cc2c([nH]c3ccc(C(F)(F)F)cc23)-c2cccnc2N1 | 5.22 | 4.89
COc1ccc2c(c1)NC(=O)Cc1c-2[nH]c2ccc([N+](=O)[O-])cc12 | 6.00 | 6.20
O=C1Cc2c([nH]c3ncccc23)-c2ccccc2N1 | – | 5.48
Cc1ccc2[nH]c3c(c2c1)CC(=O)Nc1ncccc1-3 | 3.70 | 3.37
Cc1ccc2[nH]c3c(c2c1)CC(=O)Nc1ccsc1-3 | – | 4.40
O=C1Cc2c([nH]c3ccc(Cl)cc23)-c2sccc2N1 | – | 5.30
N#Cc1ccc2[nH]c3c(c2c1)CC(=O)Nc1ccsc1-3 | 7.12 | –
O=C1Cc2c([nH]c3ccc(Cl)cc23)-c2cccnc2N1 | 4.64 | 4.38
CC(=O)Cc1ccc2c(c1)-c1[nH]c3ccc(C(F)(F)F)cc3c1CC(=O)N2 | – | 6.38
O=C1Cc2c([nH]c3ccc([N+](=O)[O-])cc23)-c2sccc2N1 | 7.10 | 7.00
COc1ccc2[nH]c3c(c2c1)CC(=O)Nc1ncccc1-3 | 4.05 | 3.38
SC1=Nc2ccccc2-c2cc(-c3ccccn3)cc(-c3cccs3)c2C1 | 4.48 | –
